Assay results published in US20230172885A1, “THIOL-CONTAINING COMPOUNDS FOR USE IN TREATING CORONAVIRUS” (priority 2020, published 2023).

Target: RBD^N501Y binding to ACE2 (Severe acute respiratory syndrome coronavirus 2, UniProt P0DTC2, N501Y)
Set-up: species or system SARS-CoV-2

Structure (SMILES) | inhibition of binding of RBD^N501Y to ACE2
O[C@@H]1[C@@H](O)[C@@H](O[C@H]2O[C@H](CS)[C@@H](O)[C@H](O)[C@H]2O)O[C@H](CS)[C@H]1O [MUC-31, 6,6′-dithiotrehalose] | potently inhibited
NCCS [Cysteamine] | potently inhibited
